Measured values reported in patent publication US11230542B2, “Inhibitors of integrated stress response pathway” (Praxis Biotech LLC, priority 2017, dated 2022).

How the values were obtained:
[1] = tested on: C57Bl/6J mice with TBI; assay: Learning memory, long-term memory and social behavior after traumatic brain injury (TBI); format: in vivo, mouse
Excerpt: Wild type three-month-old male C57Bl/6J mice were randomly assigned to TBI or sham surgeries. Animals were anesthetized and maintained at 2% isoflurane and secured to a stereotaxic frame with nontraumatic ear bars. The hair on their scalp was removed, and eye ointment and betadine were applied to their eyes and scalp, respectively. A midline incision was made to expose the skull. A unilateral TBI was induced in the right parietal lobe using the controlled cortical impact model (Nat Neurosci. 2014 August; 17(8): 1073-82). Mice received a 3.5-mm diameter craniectomy, a removal of part of the skull, using an electric microdrill. The coordinates of the craniectomy were: anteroposterior, −2.00 mm and mediolateral, +2.00 mm with respect to bregma. After the craniectomy, the contusion was induced using a 3-mm convex tip attached to an electromagnetic impactor (Leica). The contusion depth was set to 0.95 mm from dura with a velocity of 4.0 m/s sustained for 300 ms. These injury parameters were chosen to target, but not penetrate, the hippocampus. Sham animals received craniectomy surgeries but without the focal injury. After focal TBI surgery, the scalp was sutured and the animal was allowed to recover in an incubation chamber set to 37° C. Animals were returned to their home cage after showing normal walking and grooming behavior.
After 28 days post injury (dpi), animals were tested on the RAWM assay (see above). Animals ran 12 trials during learning test and 4 trials during memory test. Last three trials from learning test and all four trials from memory test were averaged to determine learning memory (learning test) and long-term memory (memory test). […]
To quantitate social tendencies of the treated mice, the time spent with a novel conspecific mouse was measured in a Crawley's three-chamber box (J Vis Exp. 2011; (48): 2473). […] The time spent with the never-before-met animal was recorded. Direct contact between the treated mouse and the housing cage or stretching of the body of the subject mouse in an area 3-5 cm around the housing cage is counted as an active contact.

[2] = tested on: fasted Balb/c mice; assay: Fasting-induced muscle atrophy; format: in vivo, mouse; settings: 10 mg/kg oral
Method: Wild type eight-weeks-old male Balb/c mice obtained from the vivarium Fundacion Ciencia & Vida Chile (Santiago, Chile) were used. Mice were housed in independent plastic cages in a room maintained at 25° C. with a 12-h:12-h light:dark cycle.
Twenty-four hours before and during the 2 days of fasted procedures, animals received oral administration via feeding tubes (15 gauge) of vehicle (50% Polyethylene glycol 400 (Sigma-Aldrich P3265) in distilled water or 10 mg/kg of compound 3 formulated in vehicle solution.
After 2 days of fasting the animals were sacrificed and muscles were removed from both hindlimbs. Mice with feed and water ad libitum were used as control.
For in vivo measurements of protein synthesis, puromycin (Sigma-Aldrich, P8833) was prepared at 0.04 μmol/g body weight in a volume of 200 μL of PBS, and subsequently administered into the animals via IP injection, 30 min prior to muscle collection.
Upon collection, muscles were immediately frozen in liquid nitrogen and then stored at −80° C. […] Protein concentration in supernatants was determined using BCA Protein Assay Kit (Pierce). […]
Puromycin (12D10) (Merck Millipore) and β-actin (Sigma-Aldrich) antibodies were used as primary antibodies. […] Quantification of protein bands was done by densitometry using ImageJ software. […]

Compound: O=C(COc1ccc(Cl)cc1)N[C@H]1CC[C@H](NC[C@@H](O)COc2ccc(Cl)cc2)CC1 (single isomer, unassigned) [Compound 3, (+)-2-(4-chlorophenoxy)-N-(4-((3-(4-chlorophenoxy)-2-hydroxypropyl)amino)cyclohexyl)acetamide]
- learning memory, number of errors in RAWM ([1]; 5 mg/kg intraperitoneally, 28-29 dpi, versus vehicle): made significantly less errors over the course of training
- long-term memory, RAWM ([1]; 35 dpi, 7 days after training, versus vehicle): a similar trend was seen
- social behavior, time spent with the novel mouse ([1]; 42 dpi, Crawley's three-chamber box): spent more time with the novel mouse at levels similar to those animals from sham group
- protein synthesis, puromycin staining in muscle fiber CSA [2]: partial recovery of protein synthesis
